What was measured:
[1] = test system: liposarcoma cell lines FU-DDLS-1, MLS1765, T449, T778, MLS402, SW872; assay: MTT cell growth assay, liposarcoma cell lines; details: six liposarcoma cell lines, 72 h
[2] = test system: synovial sarcoma cell lines SYO-1, HS-SY-II, 1273/99, Fuji and CME-1; assay: MTT cell growth assay, synovial sarcoma cell lines; details: five synovial sarcoma cell lines, 72 h
[3] = test system: MCF7, MDA-MB 453, MDA-MB 231 and T47D breast cancer cells; assay: MTT cell growth assay, breast cancer cell lines; type: cell-based; details: four breast cancer cell lines, treatment for 72 hours
Protocol: (§1) MCF7, MDA-MB 453 and MDA-MB 231 breast cancer cells were cultivated in DMEM, T47D breast cancer cells were cultivated in RPMI, GLC-1, GLC-2 and H460 R lung carcinoma cells were cultivated in IMDM, and sarcoma cells 1273 were cultivated in Häm's F12. All media were supplemented with 10% FCS, L-glutamine and antibiotics.
(§2) An 3-([…])-2,5-diphenyltetrazolium bromide (MTT) assay was performed according to the manufacturer's protocol (Roche, Mannheim, Germany).

[4] = test system: global H3K4 dimethylation; assay: Western blot of H3K4 dimethylation in breast cancer cells; type: cell-based; details: 10 and or 30 μM, 24 h
Protocol: Protein lysates were extracted from cells and blotted as described in Schulte et al. [Schulte, J. H. et al. (2009), see above] The membranes were incubated for 1-2 hours using the following antibodies and dilutions: α-LSD1 (Novus Biologicals) 1:1000; α-K4H3me2 (Abcam, Cambridge, UK) 1:1000; β-actin (Sigma-Aldrich, Hamburg, Germany) 1:5000; Her2/erbB2 (DAKO), 1:1000. […] Anal. Biochem., 295, 17-21].

LSD1 protein = LSD1 protein (Homo sapiens, UniProt O60341); details: breast cancer cells, 10 and or 30 μM, 24 h
Protocol: The membranes were incubated for 1-2 hours using the following antibodies and dilutions: α-LSD1 (Novus Biologicals) 1:1000; α-K4H3me2 (Abcam, Cambridge, UK) 1:1000; β-actin (Sigma-Aldrich, Hamburg, Germany) 1:5000; Her2/erbB2 (DAKO), 1:1000.

[5] = test system: GLC-1, GLC-2 and H460 R lung carcinoma cells; details: three lung carcinoma cell lines, 72 hours
Protocol: as §1, §2

sarcoma cells 1273 = details: sarcoma cell line 1273, 72 hours
Protocol: as §1, §2

| SMILES | cell growth (MTT assay, viable cells) [1] | cell growth (MTT assay, viable cells) [2] | cell growth (MTT assay, viable cells) [3] | global H3K4 dimethylation (Western blot) [4] | LSD1 protein levels (Western blot) (LSD1 protein) | cell growth (MTT assay, viable cells) [5] | cell growth (MTT assay, % viability) (sarcoma cells 1273) |
| --- | --- | --- | --- | --- | --- | --- | --- |
| C#CCN(C)Cc1ccccc1 [pargyline] | impaired cell growth in these sarcoma cell lines in a concentration dependent manner | impaired cell growth in these sarcoma cell lines in a concentration dependent manner |  |  |  |  |  |
| C#CCN(C)CCCOc1ccc(Cl)cc1Cl [clorgyline] | impaired cell growth in these sarcoma cell lines in a concentration dependent manner | impaired cell growth in these sarcoma cell lines in a concentration dependent manner | impaired cell growth in a dose-dependent manner | accumulation of H3K4 dimethylation | not affected |  |  |
| N[C@@H]1C[C@H]1c1ccccc1 (racemic) [tranylcypromine] | impaired cell growth in these sarcoma cell lines in a concentration dependent manner | impaired cell growth in these sarcoma cell lines in a concentration dependent manner | impaired cell growth in a dose-dependent manner | accumulation of H3K4 dimethylation |  | impaired cell growth | impaired cell growth |
